Values of other authors as cited in patent US4603221A, “Process for preparing substituted tetralones” (Ethyl Corporation, priority 1985, dated 1986).

Details: method generally in accordance with Gero et al., J. Org. Chem. 16, 1835-1838 (1951)

| pKa Value | Compound |
| --- | --- |
| 6.79 | Cc1ccnc(C)c1 [2,4-lutidine] |
| 6.62 | Cc1cccc(C)n1 [2,6-lutidine] |
